17 compounds from patent US12084472B2 (Ardelyx, Inc., priority 2015, dated 2024) can be followed below.

The experiment deals with T1, human TGR5 (Homo sapiens, UniProt Q8TDU6).
T1 construct: expressed in transfected cells; host or cells: HEK293
T1 sequence (Q8TDU6 1-330): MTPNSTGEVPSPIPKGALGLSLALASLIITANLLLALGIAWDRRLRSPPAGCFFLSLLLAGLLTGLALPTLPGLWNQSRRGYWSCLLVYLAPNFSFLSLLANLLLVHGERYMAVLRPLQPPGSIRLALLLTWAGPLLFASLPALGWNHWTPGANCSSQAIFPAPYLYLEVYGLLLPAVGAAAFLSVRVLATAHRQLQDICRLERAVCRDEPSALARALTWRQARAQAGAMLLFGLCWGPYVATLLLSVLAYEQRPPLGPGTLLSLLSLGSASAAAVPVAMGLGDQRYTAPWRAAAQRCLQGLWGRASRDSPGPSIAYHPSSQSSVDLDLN
Briefly: Cell-based TGR5 assay (cAMP generation, HTRF). The note with it: HEK293 cells stably transfected with human TGR5; cAMP by HTRF; 30 minutes at 37° C.; read-out: pEC50 Human TGR5 (converted). A digest of the protocol:
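Read-out was HTRF detection of cAMP, converted to concentration via a standard curve and fitted (3-parameter logistic) for pEC50 and maximal response. Agonist stimulation used HEK293 cells stably transfected with human TGR5, incubated 30 min at 37° C in IBMX-containing buffer at 0.05 nM to 10 μM compound.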
Regarding `O=C(CO)N(CCCCc1cc(Cl)c(COC2(c3cnccc3-c3ccccc3OC3CC3)CC2)cc1Cl)C[C@H](O)[C@@H](O)[C@H](O)[C@H](O)CO` [Compound I-71, N-{4-[2,5-dichloro-4-({1-[4-(2-cyclopropoxyphenyl)pyridin-3-yl]cyclopropoxy}methyl)phenyl]butyl}-2-hydroxy-N-[(2S,3R,4R,5R)-2,3,4,5,6-pentahydroxyhexyl]acetamide], the EC50 is less than 100 nM. To `COCC(=O)N(CCCCc1cc(Cl)c(COC2(c3cnccc3-c3ccccc3OC3CC3)CC2)cc1Cl)C[C@H](O)[C@@H](O)[C@H](O)[C@H](O)CO` [Compound I-72, N-{4-[2,5-dichloro-4-({1-[4-(2-cyclopropoxyphenyl)pyridin-3-yl]cyclopropoxy}methyl)phenyl]butyl}-2-methoxy-N-[(2S,3R,4R,5R)-2,3,4,5,6-pentahydroxyhexyl]acetamide] belongs less than 100 nM; to `CCC(=O)N(CCCCc1cc(Cl)c(COC2(c3cnccc3-c3ccccc3OC3CC3)CC2)cc1Cl)C[C@H](O)[C@@H](O)[C@H](O)[C@H](O)CO` [Compound I-73, N-{4-[2,5-dichloro-4-({1-[4-(2-cyclopropoxyphenyl)pyridin-3-yl]cyclopropoxy}methyl)phenyl]butyl}-N-[(2S,3R,4R,5R)-2,3,4,5,6-pentahydroxyhexyl]propanamide], less than 100 nM. As to `CCCC(=O)N(CCCCc1cc(Cl)c(COC2(c3cnccc3-c3ccccc3OC3CC3)CC2)cc1Cl)C[C@H](O)[C@@H](O)[C@H](O)[C@H](O)CO` [Compound I-74, N-{4-[2,5-dichloro-4-({1-[4-(2-cyclopropoxyphenyl)pyridin-3-yl]cyclopropoxy}methyl)phenyl]butyl}-N-[(2S,3R,4R,5R)-2,3,4,5,6-pentahydroxyhexyl]butanamide], the EC50 is 126 to 1000 nM. For `COCCC(=O)N(CCCCc1cc(Cl)c(COC2(c3cnccc3-c3ccccc3OC3CC3)CC2)cc1Cl)C[C@H](O)[C@@H](O)[C@H](O)[C@H](O)CO` [Compound I-75, N-(4-(2,5-dichloro-4-((1-(4-(2-cyclopropoxyphenyl)pyridin-3-yl)cyclopropoxy)methyl)phenyl)butyl)-3-methoxy-N-((2S,3R,4R,5R)-2,3,4,5,6-pentahydroxyhexyl)propanamide], the EC50 was less than 100 nM. As for `COCCNC(=O)N(CCCCc1cc(Cl)c(COC2(c3cnccc3-c3ccccc3OC3CC3)CC2)cc1Cl)C[C@H](O)[C@@H](O)[C@H](O)[C@H](O)CO` [Compound I-76, 1-{4-[2,5-dichloro-4-({1-[4-(2-cyclopropoxyphenyl)pyridin-3-yl]cyclopropoxy}methyl)phenyl]butyl}-3-(2-methoxyethyl)-1-[(2S,3R,4R,5R)-2,3,4,5,6-pentahydroxyhexyl]urea], the EC50 was 126 to 1000 nM. Take `O=C1O[C@H]([C@@H](O)[C@H](O)[C@H](O)CO)CN1CCCCc1cc(Cl)c(COC2(c3cnccc3-c3ccccc3OC3CC3)CC2)cc1Cl` [Compound I-77, (5S)-3-{4-[2,5-dichloro-4-({1-[4-(2-cyclopropoxyphenyl)pyridin-3-yl]cyclopropoxy}methyl)phenyl]butyl}-5-[(1S,2R,3R)-1,2,3,4-tetrahydroxybutyl]-1,3-oxazolidin-2-one]: the EC50 is less than 100 nM. For `O=C1CCO[C@H]([C@@H](O)[C@H](O)[C@H](O)CO)CN1CCCCc1cc(Cl)c(COC2(c3cnccc3-c3ccccc3OC3CC3)CC2)cc1Cl` [Compound I-78, (S)-4-(4-(2,5-dichloro-4-((1-(4-(2-cyclopropoxyphenyl)pyridin-3-yl)cyclopropoxy)methyl)phenyl)butyl)-2-((1S,2R,3R)-1,2,3,4-tetrahydroxybutyl)-1,4-oxazepan-5-one] the value was less than 100 nM. As for `CNC(=O)N(CCCCc1cc(Cl)c(COC2(c3cnccc3-c3ccccc3OC3CC3)CC2)cc1Cl)C[C@H](O)[C@@H](O)[C@H](O)[C@H](O)CO` [Compound I-79], the EC50 was less than 100 nM.

`O=CN(CCCCc1cc(Cl)c(COC2(c3cnccc3-c3ccccc3OC3CC3)CC2)cc1Cl)C[C@H](O)[C@@H](O)[C@H](O)[C@H](O)CO` [Compound I-80, N-(4-(2,5-dichloro-4-((1-(4-(2-cyclopropoxyphenyl)pyridin-3-yl)cyclopropoxy)methyl)phenyl)butyl)-N-((2S,3R,4R,5R)-2,3,4,5,6-pentahydroxyhexyl)formamide]: the EC50 was less than 100 nM. With `O=C([C@H](O)[C@@H](O)[C@H](O)[C@H](O)CO)N(CCCCO)CCCCc1cc(Cl)c(COC2(c3cnccc3-c3ccccc3OC3CC3)CC2)cc1Cl` [Compound I-81, (2R,3S,4R,5R)-N-(4-(2,5-dichloro-4-((1-(4-(2-cyclopropoxyphenyl)pyridin-3-yl)cyclopropoxy)methyl)phenyl)butyl)-2,3,4,5,6-pentahydroxy-N-(4-hydroxybutyl)hexanamide], the EC50 is less than 100 nM. Turning to `NC(=O)CN(CCCCc1cc(Cl)c(COC2(c3cnccc3-c3ccccc3OC3CC3)CC2)cc1Cl)C(=O)[C@@H](O)[C@@H](O)[C@H](O)[C@@H](O)CO` [Compound I-82, (2S,3S,4R,5S)-N-(carbamoylmethyl)-N-{4-[2,5-dichloro-4-({1-[4-(2-cyclopropoxyphenyl)pyridin-3-yl]cyclopropoxy}methyl)phenyl]butyl}-2,3,4,5,6-pentahydroxyhexanamide], the EC50 is less than 100 nM. As to `O=C([C@H](O)[C@@H](O)[C@H](O)[C@H](O)CO)N(CCCCCCO)CCCCc1cc(Cl)c(COC2(c3cnccc3-c3ccccc3OC3CC3)CC2)cc1Cl` [Compound I-83, (2R,3S,4R,5R)-N-{4-[2,5-dichloro-4-({1-[4-(2-cyclopropoxyphenyl)pyridin-3-yl]cyclopropoxy}methyl)phenyl]butyl}-2,3,4,5,6-pentahydroxy-N-(6-hydroxyhexyl)hexanamide], the EC50 was less than 100 nM. With `NS(=O)(=O)CCN(CCCCc1cc(Cl)c(COC2(c3cnccc3-c3ccccc3OC3CC3)CC2)cc1Cl)C(=O)[C@H](O)[C@@H](O)[C@H](O)[C@H](O)CO` [Compound I-84, (2R,3S,4R,5R)-N-{4-[2,5-dichloro-4-({1-[4-(2-cyclopropoxyphenyl)pyridin-3-yl]cyclopropoxy}methyl)phenyl]butyl}-2,3,4,5,6-pentahydroxy-N-(2-sulfamoylethyl)hexanamide], the EC50 is less than 100 nM. Turning to `O=C([C@@H](O)[C@@H](O)[C@H](O)[C@@H](O)CO)N(CCCCc1cc(Cl)c(COC2(c3cnccc3-c3ccccc3OC3CC3)CC2)cc1Cl)CCOCCO` [Compound I-85], the EC50 was less than 100 nM. For `O=C(NC[C@H](O)[C@@H](O)[C@H](O)[C@H](O)CO)N(CCCCc1cc(Cl)c(COC2(c3cnccc3-c3ccccc3OC3CC3)CC2)cc1Cl)CCOCCO` [Compound I-86, 1-(4-(2,5-dichloro-4-((1-(4-(2-cyclopropoxyphenyl)pyridin-3-yl)cyclopropoxy)methyl)phenyl)butyl)-1-(2-(2-hydroxyethoxy)ethyl)-3-((2S,3R,4R,5R)-2,3,4,5,6-pentahydroxyhexyl)urea] the value was less than 100 nM; for `O=C(O)CN(C[C@H](O)[C@@H](O)[C@H](O)[C@H](O)CO)C(=O)CCCCc1cc(Cl)c(COC2(c3cnccc3-c3ccccc3OC3CC3)CC2)cc1Cl` [Compound I-87, 2-(5-(2,5-dichloro-4-((1-(4-(2-cyclopropoxyphenyl)pyridin-3-yl)cyclopropoxy)methyl)phenyl)-N-((2S,3R,4R,5R)-2,3,4,5,6-pentahydroxyhexyl)pentanamido)acetic acid], less than 100 nM.
